Experiments:
[1] = system: CaCo-2 (colorectal adenocarcinoma) cells; experiment: SRB cell growth inhibition assay, CaCo-2; format: cell-based, human; settings: mean ± standard deviation
Description: (§1) The antitumor potential of the Sonogashira coupling products 2, tricyclic lactones 3 and 5, and tetracyclic lactones 7 was evaluated using the sulforhodamine B (SRB) assay against five human tumor cell lines: colorectal adenocarcinoma (CaCo-2), breast adenocarcinoma (MCF-7), gastric adenocarcinoma (AGS), cervical carcinoma (HeLa), and non-small cell lung cancer (NCI-H460). A primary pig liver cell culture (PLP2) was used to assess the toxicity of compounds.
(§2) The human tumor cell lines used were CaCo-2 (colorectal adenocarcinoma), MCF-7 (breast adenocarcinoma), AGS (gastric adenocarcinoma), HeLa (cervical carcinoma), NCI-H460 (lung carcinoma). Non-tumor cell lines were also tested: PLP2 (primary pig liver culture). All the cell lines were maintained in RPMI-1640 medium supplemented with 10% fetal bovine serum, glutamine (2 mM), penicillin (100 U/mL), and streptomycin ([…]), with the exception of PLP2, which was maintained in DMEM medium supplemented with fetal bovine serum (10%), glutamine and antibiotics. The culture flasks were incubated at 37 °C and with 5% CO2, under a humid atmosphere. The cells were used only when they had 70 to 80% confluence. A known mass of each compound was dissolved in DMSO/H2O (1:1, 1 mL), in order to obtain the stock solutions with a concentration of 1 mM. […] Each compound concentration (10 μL) was incubated with the cell suspension (190 μL) of the cell lines tested in 96-well microplates for 72 h. The microplates were incubated at 37 °C and with 5% CO2 in a humid atmosphere after checking the adherence of the cells. All cell lines were tested at a concentration of 10,000 cells/well. After the incubation period, the cells were treated: TCA (10% w/v; 100 μL) was previously cooled, and plates were incubated for 1 h at 4 °C, washed with water, and, after drying, a SRB solution (0.057%, m/v; 100 μL) was added and left to stand at room temperature for 30 min. To remove non-adhered SRB, plates were washed three times with a solution of acetic acid (1% v/v) and placed to dry. Finally, an adhered SRB was solubilized with Tris (10 mM, 200 μL) and the absorbance at a wavelength of 540 nm was read in the Biotek ELX800 microplate reader. The results obtained by the SRB assay were expressed regarding the concentration compounds that can inhibit cell growth by 50%—GI50. Doxorubicin was used as a positive control.

[2] = system: AGS (gastric adenocarcinoma) cells; experiment: SRB cell growth inhibition assay, AGS; format: cell-based; settings: Homo sapiens, 72 h, mean ± standard deviation
Description: as §1, §2

[3] = system: HeLa (cervical carcinoma) cells; experiment: SRB cell growth inhibition assay, HeLa; format: cell-based; settings: Homo sapiens, 72 h, mean ± standard deviation
Description: as §1, §2

[4] = system: NCI-H460 (non-small cell lung cancer) cells; experiment: SRB cell growth inhibition assay, NCI-H460; format: cell-based; settings: Homo sapiens, 72 h, mean ± standard deviation
Description: as §1, §2

[5] = system: T. brucei Lister 427 bloodstream forms; experiment: Resazurin-based anti-T. brucei assay; format: cell-based, Trypanosoma brucei; settings: 72 h, dose-response; for IC50: Trypanosoma brucei
Description: The antiparasitic activity of compounds 2c–g, 3a, 5a and 7 was evaluated at a single concentration of 20 μM, against Trypanosoma brucei (T. brucei) and Leishmania infantum (L. infantum) promastigotes. The results are shown in Table 9 together with the cytotoxicity data (CC50) in THP-1–derived macrophages cells.
T. brucei Lister 427 bloodstream forms were grown in a humidified incubator at 37 °C, 5% CO2 in complete HMI-9 medium 1 supplemented with 10% heat-inactivated Fetal Bovine Serum (FBS) and 100 UI/mL penicillin/streptomycin. Parasites maintenance was performed in T25 ventilated flasks by subpassage at a concentration of 1 × 10^4/mL every 2 days on T25 ventilated flasks.
The efficacy of compounds against T. brucei bloodstream forms was evaluated using a modified resazurin-based assay previously described in the literature. Parasites were added to 100 µL of serial dilutions of compounds in supplemented complete medium at a cell density of 5 × 10^3/mL for. As a quality control, a dose–response curve for the antitrypanosomal pentamidine was included in all the assays. The final volume of the assay is 200 µL/well. Each condition was carried out in duplicate. Following 72 h incubation at the specific conditions for T. brucei, 20 µL of a 0.5 mM resazurin solution was added and plates were incubated for a further 4 h under the same conditions. Fluorescence was measured at 544 nm and 590 nm excitation and emission wavelength, respectively, using a Synergy 2 Multi-Mode Reader (Biotek, Winooski, VT, USA). Results were shown as % of parasite growth inhibition compared to control (untreated parasites) and represent the average of at least three independent experiments. The effect was evaluated by the determination of the IC50 value (concentration required to inhibit growth in 50%) and calculated by non-linear regression curves using GraphPad Prism version 8.1.1 for Windows (GraphPad Software, San Diego CA, USA).

[6] = system: five human tumor cell lines (CaCo-2, MCF-7, AGS, HeLa, NCI-H460); experiment: SRB assay, statements over the five human tumor cell lines; format: cell-based; settings: text statement over CaCo-2, MCF-7, AGS, read-out: GI50 in all tested human tumor cell lines
Description: as §1
The human tumor cell lines used were CaCo-2 (colorectal adenocarcinoma), MCF-7 (breast adenocarcinoma), AGS (gastric adenocarcinoma), HeLa (cervical carcinoma), NCI-H460 (lung carcinoma). Non-tumor cell lines were also tested: PLP2 (primary pig liver culture). All the cell lines were maintained in RPMI-1640 medium supplemented with 10% fetal bovine serum, glutamine (2 mM), penicillin (100 U/mL), and streptomycin ([…]), with the exception of PLP2, which was maintained in DMEM medium supplemented with fetal bovine serum (10%), glutamine and antibiotics. The culture flasks were incubated at 37 °C and with 5% CO2, under a humid atmosphere. The cells were used only when they had 70 to 80% confluence. […] Finally, an adhered SRB was solubilized with Tris (10 mM, 200 μL) and the absorbance at a wavelength of 540 nm was read in the Biotek ELX800 microplate reader. […]

GI50 ([1]; 72 h) [µM]	GI50 ([1]; Homo sapiens, Caco-2, 72 h) [µM]	GI50 [2] [µM]	GI50 [3] [µM]	GI50 [4] [µM]	T. brucei IC50 [5]	IC50 [5] [µM]	GI50 [6] [µM]	Compound
3.72 ± 2.42	< 5	9.25 ± 0.61	5.44 ± 4.31	9.33 ± 4.21	low μM range	6.43	< 10	COC(=O)c1sc2nccnc2c1C#Cc1ccccn1 [Compound 2f, Methyl 7-(pyridin-2-ylethynyl)thieno[2,3-b]pyrazine-6-carboxylate]
	58.8 ± 2.44	42.6 ± 3.96	58.8 ± 2.44	61.2 ± 4.17		< 11	< 10	O=c1oc(-c2ccccn2)cc2c1sc1nccnc12 [Compound 3f, 8-(Pyridin-2-yl)-6H-pyrano[4′,3′:4,5]thieno[2,3-b]pyrazin-6-one]
